One assay deals with COX-1 (Homo sapiens, UniProt P23219). Put plainly: Assay of COX-1 activity from U937 cell microsomes. In kind it is biochemical. More on the design: Assay of COX-1 Activity from U937 cell microsomes; endogenous in cells; host or cells: U937 cells, 100,000×g microsomal pellet. Particulars: PGE2, read-out: COX-1 (IC50 μM) U-937. Here is the method: Assay of COX-1 Activity from U937 cell microsomes
U 937 cells are pelleted by centrifugation at 500×g for 5 min and washed once with phosphate-buffered saline and repelleted. […] The cell suspension is sonicated 4 times for 10 sec and is centrifuged at 10,000×g for 10 min at 4° C. The supernatant is centrifuged at 100,000×g for 1 hr at 4° C. The 100,000×g microsomal pellet is resuspended in 0.1 M Tris-HCl, pH 7.4, 10 mM EDTA to approximately 7 mg protein/ml and stored at -80° C.
Microsomal preparations are thawed immediately prior to use, subjected to a brief sonication, and then diluted to a protein concentration of 125 μg/ml in 0.1 M Tris-HCl buffer, pH 7.4 containing 10 mM EDTA, 0.5 mM phenol, 1 mM reduced glutathione and 1 μM hematin. Assays are performed in duplicate in a final volume of 250 pl. Initially, 5 µl of DMSO vehicle or drug in DMSO are added to 20 μl of 0.1 M Tris-HCl buffer, pH 7.4 containing 10 mM EDTA in wells of a 96-deepwell polypropylene titre plate. 200 μl of the microsomal preparation are then added and pre-incubated for 15 min at room temperature before addition of 25 μl of […] in 0.1 M Tris-HCl and 10 mM EDTA, pH 7.4. Samples are incubated for 40 min at room temperature and the reaction is stopped by the addition of 25 pl of 1 N HCl. Samples are neutralized with 25 μl of 1 N NaOH prior to quantitation of PGE2 content by radioimmunoassay (Dupont-NEN or Amersham assay kits). Cyclooxygenase activity is defined as the difference between PGE2 levels in samples incubated in the presence of arachidonic acid and ethanol vehicle.
(§1) In the assay, inhibition is determined by measuring the amount of prostaglandin E2 (PGE2) synthesized in the presence of arachidonic acid, cyclooxygenase-I or cyclooxygenase-2 and a putative inhibitor.

Assay [1] deals with T1, COX-2 (Homo sapiens, UniProt P35354).
T1 sequence (P35354 18-604): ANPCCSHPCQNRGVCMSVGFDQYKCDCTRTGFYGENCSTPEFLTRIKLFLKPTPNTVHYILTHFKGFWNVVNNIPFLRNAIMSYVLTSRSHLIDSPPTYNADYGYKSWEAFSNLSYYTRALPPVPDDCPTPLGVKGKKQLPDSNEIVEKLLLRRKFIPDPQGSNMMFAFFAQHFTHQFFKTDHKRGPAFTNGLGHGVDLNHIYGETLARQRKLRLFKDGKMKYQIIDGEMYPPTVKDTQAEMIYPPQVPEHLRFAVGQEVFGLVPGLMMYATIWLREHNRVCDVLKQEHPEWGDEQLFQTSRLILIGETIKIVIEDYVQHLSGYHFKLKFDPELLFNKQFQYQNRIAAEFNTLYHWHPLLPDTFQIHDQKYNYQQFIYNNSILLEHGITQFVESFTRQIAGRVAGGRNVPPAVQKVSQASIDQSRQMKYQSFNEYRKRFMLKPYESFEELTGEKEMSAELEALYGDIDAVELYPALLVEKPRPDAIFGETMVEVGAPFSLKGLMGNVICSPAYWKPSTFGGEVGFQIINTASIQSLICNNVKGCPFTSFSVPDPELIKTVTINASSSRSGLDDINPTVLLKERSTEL
Briefly: Whole cell assay for COX-2 using CHO transfected cell line (CHO [hCOX-2]), PGE2. In kind it is cell-based. On the set-up: expressed in transfected cells; host or cells: CHO (Chinese hamster ovary), stably transfected with pCDNAIII vector; CHO [hCOX-2]. Particulars: CHO [hCOX-2] cells, 10 μM AA. Here is the method: Chinese hamster ovary (CHO) cell lines which have been stably transfected with an eukaryotic expression vector pCDNAIII containing either the human COX-1 or COX-2 cDNA's are used for the assay. These cell lines are referred to as CHO [hCOX-1] and CHO [hCOX-2], respectively. […] Drugs to be tested are dissolved in DMSO to 66.7-fold the highest test drug concentration. […] Cells (0.3×10^6 cells in 200 p) are preincubated with 3 AIl of the test drug or DMSO vehicle for 15 min at 37° C. […] Cells are then challenged in the presence or absence of drug with the AA/HBSS solution to yield a final concentration of 0.5 μM AA in the CHOhCOX-1] assay and a final concentration of 10 μM AA in the CHO [hCOX-2] assay. […] The samples are centrifuged at 300×g at 4° C. for 10 min, and an aliquot of the clarified supernatant is appropriately diluted for the determination of PGE2 levels using an enzyme-liked immunoassay for PGE2 (Correlate PGE2 enzyme immunoassay kit, Assay Designs, Inc.). Cyclooxygenase activity in the absence of test compounds is determined as the difference in PGE2 levels of cells challenged with arachidonic acid versus the PGE2 levels in cells mock-challenged with ethanol vehicle. Inhibition of PGE2 synthesis by test compounds is calculated as a percentage of the activity in the presence of drug versus the activity in the positive control samples.
as §1

Assay [2] addresses T1, COX-2. Put plainly: Human whole blood assay, COX-2 (LPS-induced PGE2 production). In kind it is cell-based. More on the design: incubation of human whole blood with LPS, which induces COX-2; from tissue; host or cells: fresh human whole blood (volunteers), incubated with LPS. As to conditions: LPS-induced PGE2, 24 hours at 37° C, read-out: COX-2 (IC50 μM) HWB. The source says: As well, platelets in whole blood contain a large amount of the COX-1 enzyme. Immediately following blood clotting, platelets are activated through a thrombin-mediated mechanism. This reaction results in the production of thromboxane B2 (TxB2) via activation of COX-1. Thus, the effect of test compounds on TxB2 levels following blood clotting can be examined and used as an index for COX-1 activity. Therefore, the degree of selectivity by the test compound can be determined by measuring the levels of PGE2 after LPS induction (COX-2) and […] following blood clotting (COX-1) in the same assay.
A. COX-2 (LPS-induced PGE2 production)
Fresh blood is collected in heparinized tubes by venipuncture from both male and female volunteers. The subjects have no apparent inflammatory conditions and have not taken any NSAIDs for at least 7 days prior to blood collection. Plasma is immediately obtained from a 2mL blood aliquot to use as blank (basal levels of PGE2). The remaining blood is incubated with LPS (100 μg/ml final concentration, Sigma Chem, #L-2630 from E. coli; diluted in 0.1% BSA (Phosphate buffered saline) for 5 minutes at room temperature. Five hundred μL aliquots of blood are incubated with either 2μL of vehicle (DMSO) or 2 μL of a test compound at final concentrations varying from 10nM to 30 μM for 24 hours at 37° C. At the end of the incubation, the blood is centrifuged at 12,000×g for 5 minutes to obtain plasma. A 100 μL aliquot of plasma is mixed with 400 μL of methanol for protein precipitation. The supernatant is obtained and is assayed for PGE2 using a radioimmunoassay kit (Amersham, RPA#530) after conversion of PGE2 to its methyl oximate derivative according to the manufacturer's procedure. […]

COX-1, sequence (P23219 24-599): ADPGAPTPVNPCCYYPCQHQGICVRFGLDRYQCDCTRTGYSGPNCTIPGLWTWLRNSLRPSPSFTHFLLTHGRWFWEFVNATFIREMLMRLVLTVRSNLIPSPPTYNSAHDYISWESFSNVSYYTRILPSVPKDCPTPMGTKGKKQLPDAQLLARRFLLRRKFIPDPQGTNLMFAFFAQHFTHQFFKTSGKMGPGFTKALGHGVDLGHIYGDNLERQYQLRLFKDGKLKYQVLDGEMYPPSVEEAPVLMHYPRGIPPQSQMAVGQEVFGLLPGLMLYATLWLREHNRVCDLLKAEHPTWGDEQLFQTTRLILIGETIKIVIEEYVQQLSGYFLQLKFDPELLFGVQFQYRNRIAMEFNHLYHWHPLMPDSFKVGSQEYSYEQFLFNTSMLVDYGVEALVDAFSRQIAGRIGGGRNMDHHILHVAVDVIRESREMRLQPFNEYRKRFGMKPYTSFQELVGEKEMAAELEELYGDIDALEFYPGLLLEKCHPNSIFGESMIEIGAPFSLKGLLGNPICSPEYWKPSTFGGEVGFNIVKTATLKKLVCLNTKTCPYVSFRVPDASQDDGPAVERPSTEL

For the compound `COC(=O)c1ccc(Cn2ncc(-c3ccc(S(C)(=O)=O)cc3)c(-c3ccccc3)c2=O)cc1` [Example 13, 2-(4-Carbomethoxybenzyl)-5-(4-methylsulfonyl)phenyl-4-phenyl-2H-pyridazin-3-one], the results for the 50% inhibitory concentration (IC50) on COX-1, against COX-2 [1] and on COX-2 [2] were > 10 µM, 2 µM and > 33 µM, respectively.

For `CS(=O)(=O)c1ccc(-c2cnn(Cc3cccc(F)c3)c(=O)c2-c2ccccc2)cc1` [Example 15, 2-(3-Fluorobenzyl)-5-(4-methylsulfonyl)phenyl-4-phenyl-2H-pyridazin-3-one], the IC50 on COX-1 is > 10 µM; on COX-2 [1], 0.009 µM; on COX-2 [2] it was 0.8 µM.

`CS(=O)(=O)c1ccc(-c2cnn(Cc3ccc(F)cc3)c(=O)c2-c2ccc(F)cc2)cc1` [Example 16, 2-(4-Fluorobenzyl)-4-(4-fluorophenyl)-5-(4-methylsulfonyl)phenyl-2H-pyridazin-3-one]: the IC50 on COX-1 is 3 to 10 µM; on COX-2 [1], 0.053 µM; on COX-2 [2], 1.1 µM.

With `CS(=O)(=O)c1ccc(-c2cnn(Cc3ccccc3F)c(=O)c2-c2ccccc2)cc1` [Example 17, 2-(2-Fluorobenzyl)-5-(4-methylsulfonyl)phenyl-4-phenyl-2H-pyridazin-3-one], the IC50 at COX-1 was > 10 µM.

Turning to `CS(=O)(=O)c1ccc(-c2cnn(C3CC3)c(=O)c2-c2ccc(F)cc2)cc1` [Example 18, 2-Cyclopropyl-5-(4-methylsulfonyl)phenyl-4-(4-fluorophenyl)-2H-pyridazin-3-one], the IC50 on COX-1 is ~10 µM.

Regarding `CS(=O)(=O)c1ccc(-c2cnn(CCC(F)(F)F)c(=O)c2-c2ccc(F)cc2)cc1` [Example 19, 4-(4-Fluorophenyl)-5-(4-methylsulfonyl)phenyl-2-(3,3,3-trifluoropropyl)-2H-pyridazin-3-one], at COX-1, the concentration for half-maximal inhibition (IC50) is > 10 µM.

As to `CS(=O)(=O)c1ccc(-c2cnn(Cc3ccncc3)c(=O)c2-c2ccc(F)cc2)cc1` [Example 20, 4-(4-Fluorophenyl)-5-(4-methylsulfonyl)phenyl-2-(4-pyridylmethyl)-2H-pyridazin-3-one], the figures for the half-maximal inhibitory concentration (IC50) at COX-1, at COX-2 [1] and at COX-2 [2] were > 10 µM, 1.4 µM and 16.8 µM, respectively.

`CS(=O)(=O)c1ccc(-c2cnn(Cc3ccccc3)c(=O)c2Oc2ccc(Cl)cn2)cc1` [Example 23, 2-Benzyl-4-(5-chloro-2-pyridyloxy)-5-(4-methylsulfonyl)phenyl-2H-pyridazin-3-one]: the half-maximal inhibitory concentration (IC50) is 3 to 10 µM on COX-1, 0.26 µM at COX-2 [1] and 0.9 µM at COX-2 [2].

For `CC(C)(C)Cn1ncc(-c2ccc(S(C)(=O)=O)cc2)c(-c2ccc(F)cc2)c1=O` [Example 24, 2-(2,2-Dimethylpropyl)-4-(4-fluorophenyl)-5-(4-methylsulfonyl)phenyl-2H-pyridazin-3-one], the half-maximal inhibitory concentration (IC50) on COX-1 was ~10 µM; on COX-2 [1], 0.16 µM; on COX-2 [2], 2.4 µM.

With `CC(c1ccccc1)n1ncc(-c2ccc(S(C)(=O)=O)cc2)c(-c2ccc(F)cc2)c1=O` (stereo not shown) [Example 25, 4-(4-Fluorophenyl)-5-(4-methylsulfonyl)phenyl-2-(1-phenyl-ethyl)-2H-pyridazin-3-one], the IC50 at COX-1 is ~1 µM; against COX-2 [1], 0.49 µM; at COX-2 [2], 1.4 µM.

In the case of `CS(=O)(=O)c1ccc(-c2cnn(-c3cccc(F)c3)c(=O)c2-c2ccccc2)cc1` [Example 26, 2-(3-Fluorophenyl)-5-(4-methylsulfonyl)phenyl-4-phenyl-2H-pyridazin-3-one], the results for the IC50 on COX-1, against COX-2 [1] and on COX-2 [2] were > 10 µM, 0.065 µM and 5.5 µM, respectively.

`CS(=O)(=O)c1ccc(-c2cnn(Cc3cccs3)c(=O)c2-c2ccc(F)cc2)cc1` [Example 27, 4-(4-Fluorophenyl)-5-(4-methylsulfonyl)phenyl-2-(thiophen-2-yl-methyl)-2H-pyridazin-3-one]: on COX-1, the 50% inhibitory concentration (IC50) was ~1 µM.

With `CS(=O)(=O)c1ccc(-c2cnn(CCc3ccccc3)c(=O)c2-c2ccc(F)cc2)cc1` [Example 33, 2-(2-Phenethyl)-4-(4-fluorophenyl)-5-(4-methylsulfonyl)phenyl-2H-pyridazin-3-one], the IC50 at COX-1 is > 10 µM; at COX-2 [2] it was 8.6 µM.

As for `CS(=O)(=O)c1ccc(-c2cnn(Cc3ccccc3)c(=O)c2Oc2ccc(Br)cn2)cc1` [Example 34, 2-Benzyl-4-(5-bromo-2-pyridyloxy)-5-(4-methylsulfonyl)phenyl-2H-pyridazin-3-one], the half-inhibitory concentration (IC50) on COX-1 was > 10 µM; at COX-2 [2] it was 0.86 µM.

With `Cc1ccc(-c2c(-c3ccc(S(C)(=O)=O)cc3)cnn(Cc3ccccc3)c2=O)cc1` [Example 35, 2-Benzyl-4-(4-methylphenyl)-5-(4-methylsulfonyl)phenyl-2H-pyridazin-3-one], the IC50 at COX-2 [2] was determined as 0.35 µM.

Consider `CS(=O)(=O)c1ccc(-c2cnn(CC3CCCCC3)c(=O)c2-c2ccc(F)cc2)cc1` [Example 36, 2-Cyclohexylmethyl-4-(4-fluorophenyl)-5-(4-methylsulfonyl)phenyl-2H-pyridazin-3-one], for which the IC50 on COX-1 lay within 0.3 to 1 µM.

In general, IC50 refers to the concentration needed to halve the response being measured.

For the origin of these results see patent US6004960A, “Pyridazinones as inhibitors of cyclooxygenase-2” (Merck Frosst Canada, Inc., priority 1998, dated 1999).
